Measured values from ChEMBL document CHEMBL1159366, “Antimycobacterial activity of phorbol esters from the fruits of Sapium indicum” (2003).
In brackets after ≈: the same amount, converted by molar mass.

Tested on: Mycobacterium tuberculosis
Experiment: Antimycobacterial activity against Mycobacterium tuberculosis H37Ra
Type: functional

| Compound | MIC |
| --- | --- |
| CNc1ccccc1C(=O)O[C@@H]1[C@@H](C)[C@]2(O)[C@@H]3C=C(C)C(=O)[C@@H]3[C@H](O)C(C)=C[C@H]2[C@@H]2C(C)(C)[C@]12OC(C)=O | > 200 µg/mL |
| CNc1ccccc1C(=O)O[C@@H]1[C@@H](C)[C@]2(O)[C@@H]3C=C(C)C(=O)[C@H]3CC(C)=C[C@H]2[C@@H]2C(C)(C)[C@]12OC(C)=O | 50 µg/mL (≈ 98.5 µM) |
| CNc1ccccc1C(=O)O[C@@H]1[C@@H](C)[C@]2(O)[C@@H]3C=C(C)C(=O)[C@@H]3[C@H](O)C(CO)=C[C@H]2[C@@H]2C(C)(C)[C@]12OC(C)=O | 25 µg/mL (≈ 46.3 µM) |
| CNc1ccccc1C(=O)O[C@@H]1[C@@H](C)[C@]2(O)[C@@H]3C=C(C)C(=O)[C@@H]3CC(C)=C[C@H]2[C@@H]2C(C)(C)[C@]12OC(C)=O | 200 µg/mL (≈ 394 µM) |
| CNc1ccccc1C(=O)O[C@@H]1[C@@H](C)[C@]2(O)[C@@H]3C=C(C)C(=O)[C@@H]3CC(CO)=C[C@H]2[C@@H]2C(C)(C)[C@]12OC(C)=O | > 200 µg/mL |
| NNC(=O)c1ccncc1 [ISONIAZID] | 0.04 µg/mL (≈ 0.292 µM) |
| NC[C@H]1O[C@H](O[C@H]2[C@H](O)[C@@H](O[C@H]3O[C@H](CO)[C@@H](O)[C@H](N)[C@H]3O)[C@H](N)C[C@@H]2N)[C@H](O)[C@@H](O)[C@@H]1O.O=S(=O)(O)O [KANAMYCIN SULFATE] | 2 µg/mL |
| CNc1ccccc1C(=O)O[C@@H]1[C@@H](C)[C@]2(O)[C@@H]3C=C(C)C(=O)[C@H]3CC(CO)=C[C@H]2[C@@H]2C(C)(C)[C@]12OC(C)=O [SAPINTOXIN A] | 3.12 µg/mL (≈ 5.96 µM) |
| CNc1ccccc1C(=O)O[C@@H]1[C@@H](C)[C@]2(O)[C@@H]3C=C(C)C(=O)[C@H]3[C@H](O)C(CO)=C[C@H]2[C@@H]2C(C)(C)[C@]12OC(C)=O [SAPINTOXIN B] | 12.5 µg/mL (≈ 23.2 µM) |
| CNc1ccccc1C(=O)O[C@@H]1[C@@H](C)[C@]2(O)[C@@H]3C=C(C)C(=O)[C@H]3[C@H](O)C(C)=C[C@H]2[C@@H]2C(C)(C)[C@]12OC(C)=O [SAPINTOXIN C] | 25 µg/mL (≈ 47.7 µM) |
